Reference: PubChem BioAssay AID2060621 (Molecular Pharmacology Branch, DTP, NCI, 2025)
Where “and” joins values, the source holds several entries; their conditions need not be identical. Identical values can stand only once.

System: 324938-238-R-J1-PDC complex spheroids viability
Test: Anticancer human tumor 324938-238-R-J1-PDC patient-derived bladder carcinoma cell line growth inhibition [CLK]
Conditions: for viability, T/C: stronger effect = lower value
Outline: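 Patient-derived tumor cells grown as complex spheroids with HUVEC endothelial cells and mesenchymal stem cells, treated with drug combinations. Concentrations descend in half-log steps from near clinical Cmax, or from 10 microM if Cmax unknown.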

[1] = curve of first compound, second compound 0.0316 µM
[2] = curve of first compound, second compound 0.1 µM
[3] = curve of first compound, second compound 0.316 µM
[4] = curve of first compound, second compound 1 µM
[5] = curve of first compound, second compound 3.16 µM
[6] = curve of first compound, second compound 10 µM
[7] = second compound 0.0316 µM, first compound 0.0316 µM
[8] = second compound 0.0316 µM, first compound 0.1 µM
[9] = second compound 0.0316 µM, first compound 0.316 µM
[10] = second compound 0.0316 µM, first compound 1 µM
[11] = second compound 0.1 µM, first compound 0.0316 µM
[12] = second compound 0.1 µM, first compound 0.1 µM
[13] = second compound 0.1 µM, first compound 0.316 µM
[14] = second compound 0.1 µM, first compound 1 µM
[15] = second compound 0.316 µM, first compound 0.0316 µM
[16] = second compound 0.316 µM, first compound 0.1 µM
[17] = second compound 0.316 µM, first compound 0.316 µM
[18] = second compound 0.316 µM, first compound 1 µM
[19] = second compound 1 µM, first compound 0.0316 µM
[20] = second compound 1 µM, first compound 0.1 µM
[21] = second compound 1 µM, first compound 0.316 µM
[22] = second compound 1 µM, first compound 1 µM
[23] = second compound 3.16 µM, first compound 0.0316 µM
[24] = second compound 3.16 µM, first compound 0.1 µM
[25] = second compound 3.16 µM, first compound 0.316 µM
[26] = second compound 3.16 µM, first compound 1 µM
[27] = second compound 10 µM, first compound 0.0316 µM
[28] = second compound 10 µM, first compound 0.1 µM
[29] = second compound 10 µM, first compound 0.316 µM
[30] = second compound 10 µM, first compound 1 µM
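Note: viability read after seven days of drug exposure.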
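Throughout, for viability, T/C: 100% = DMSO vehicle control wells.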

**Q.** How did the IC50 [1] turn out when `CCN1CCN(Cc2ccc(Nc3ncc(F)c(-c4cc(F)c5nc(C)n(C(C)C)c5c4)n3)nc2)CC1` + CN1CCN(c2cc(C(=O)Nc3cc4cc(-c5cnn(C)c5)ccc4cn3)ccn2)CC1 was run?
**A.** The IC50 was 64.8 nM.

**Q.** What about the IC50 [2] of the same compound?
**A.** The IC50 was 5.84 nM.

**Q.** What about the IC50 [3] of the same compound?
**A.** The IC50 was less than 3.16 nM.

**Q.** What about the IC50 [4] of the same compound?
**A.** The IC50 was less than 3.16 nM.

**Q.** And the IC50 [5]?
**A.** Its IC50 is less than 3.16 nM.

**Q.** What about the IC50 [6] of the same compound?
**A.** The IC50 was less than 3.16 nM.

**Q.** What about the viability, T/C (second compound 0.0316 µM, first compound 0.00316 µM) of the same compound?
**A.** The viability, T/C was 65%.

**Q.** What about the viability, T/C (second compound 0.0316 µM, first compound 0.01 µM) of the same compound?
**A.** Its viability, T/C is 72.9%.

**Q.** What about the viability, T/C [7] of the same compound?
**A.** Its viability, T/C is 56.3%.

**Q.** What about the viability, T/C [8] of the same compound?
**A.** The viability, T/C was 46.5%.

**Q.** What about the viability, T/C [9] of the same compound?
**A.** Its viability, T/C is 34.2%.

**Q.** And the viability, T/C [10]?
**A.** Its viability, T/C is 35.5%.

**Q.** What about the viability, T/C (second compound 0.1 µM, first compound 0.00316 µM) of the same compound?
**A.** Its viability, T/C is 53%.

**Q.** And the viability, T/C (second compound 0.1 µM, first compound 0.01 µM)?
**A.** Its viability, T/C is 47.2%.

**Q.** And the viability, T/C [11]?
**A.** The viability, T/C was 42.1%.

**Q.** And the viability, T/C [12]?
**A.** Its viability, T/C is 42.3%.

**Q.** And the viability, T/C [13]?
**A.** The viability, T/C was 34.2%.

**Q.** What about the viability, T/C [14] of the same compound?
**A.** The viability, T/C was 31.3%.

**Q.** And the viability, T/C (second compound 0.316 µM, first compound 0.00316 µM)?
**A.** The viability, T/C was 23.8%.

**Q.** What about the viability, T/C (second compound 0.316 µM, first compound 0.01 µM) of the same compound?
**A.** Its viability, T/C is 24.7%.

**Q.** What about the viability, T/C [15] of the same compound?
**A.** The viability, T/C was 25%.

**Q.** And the viability, T/C [16]?
**A.** The viability, T/C was 25.1%.

**Q.** What about the viability, T/C [17] of the same compound?
**A.** Its viability, T/C is 28.2%.

**Q.** What about the viability, T/C [18] of the same compound?
**A.** Its viability, T/C is 31.1%.

**Q.** What about the viability, T/C (second compound 1 µM, first compound 0.00316 µM) of the same compound?
**A.** Its viability, T/C is 1.45%.

**Q.** And the viability, T/C (second compound 1 µM, first compound 0.01 µM)?
**A.** The viability, T/C was 1.54%.

**Q.** And the viability, T/C [19]?
**A.** The viability, T/C was 1.57%.

**Q.** What about the viability, T/C [20] of the same compound?
**A.** Its viability, T/C is 2.36%.

**Q.** What about the viability, T/C [21] of the same compound?
**A.** The viability, T/C was 1.73%.

**Q.** What about the viability, T/C [22] of the same compound?
**A.** Its viability, T/C is 0.69%.

**Q.** What about the viability, T/C (second compound 3.16 µM, first compound 0.00316 µM) of the same compound?
**A.** Its viability, T/C is 0.12%.

**Q.** And the viability, T/C (second compound 3.16 µM, first compound 0.01 µM)?
**A.** The viability, T/C was 0.84%.

**Q.** And the viability, T/C [23]?
**A.** Its viability, T/C is 0.19%.

**Q.** What about the viability, T/C [24] of the same compound?
**A.** Its viability, T/C is 0.14%.

**Q.** And the viability, T/C [25]?
**A.** The viability, T/C was 0.32%.

**Q.** What about the viability, T/C [26] of the same compound?
**A.** The viability, T/C was 0.84%.

**Q.** And the viability, T/C (second compound 10 µM, first compound 0.00316 µM)?
**A.** Its viability, T/C is 0.09%.

**Q.** What about the viability, T/C (second compound 10 µM, first compound 0.01 µM) of the same compound?
**A.** The viability, T/C was 0.19%.

**Q.** What about the viability, T/C [27] of the same compound?
**A.** The viability, T/C was 0.2%.

**Q.** What about the viability, T/C [28] of the same compound?
**A.** The viability, T/C was 0.11%.

**Q.** And the viability, T/C [29]?
**A.** The viability, T/C was 0.15%.

**Q.** And the viability, T/C [30]?
**A.** The viability, T/C was 0.2%.

**Q.** `CCCS(=O)(=O)Nc1ccc(F)c(C(=O)c2c[nH]c3ncc(-c4ccc(Cl)cc4)cc23)c1F` was tested. Which viability, T/C (compound 0.0316 µM) did it give?
**A.** The viability, T/C was 80.8% and 83%.

**Q.** And the viability, T/C (compound 0.1 µM)?
**A.** Its viability, T/C is 96.9% and 88.4%.

**Q.** What about the viability, T/C (compound 0.316 µM) of the same compound?
**A.** Its viability, T/C is 102% and 90.1%.

**Q.** And the viability, T/C (compound 1 µM)?
**A.** Its viability, T/C is 115% and 101%.

**Q.** What about the viability, T/C (compound 3.16 µM) of the same compound?
**A.** The viability, T/C was 111% and 94.9%.

**Q.** And the viability, T/C (compound 10 µM)?
**A.** Its viability, T/C is 55% and 44.1%.

**Q.** What about the IC50 (curve of compound) of the same compound?
**A.** The IC50 was > 10000 nM and 8670 nM.

**Q.** With `COc1cccc2c1C(=O)c1c(O)c3c(c(O)c1C2=O)CC(O)(C(=O)CO)CC3OC1CC(N)C(O)C(C)O1` (stereo unspecified) + CN1CCN(c2cc(C(=O)Nc3cc4cc(-c5cnn(C)c5)ccc4cn3)ccn2)CC1 as the compound, how does the IC50 [1] read?
**A.** The IC50 was less than 31.6 nM.

**Q.** What about the IC50 [2] of the same compound?
**A.** The IC50 was less than 31.6 nM.

**Q.** What about the IC50 [3] of the same compound?
**A.** Its IC50 is less than 31.6 nM.

**Q.** And the IC50 [4]?
**A.** Its IC50 is less than 31.6 nM.

**Q.** And the IC50 [5]?
**A.** Its IC50 is less than 31.6 nM.

**Q.** What about the IC50 [6] of the same compound?
**A.** The IC50 was less than 31.6 nM.

**Q.** What about the viability, T/C [7] of the same compound?
**A.** The viability, T/C was 19.4%.

**Q.** What about the viability, T/C [8] of the same compound?
**A.** Its viability, T/C is 14.4%.

**Q.** And the viability, T/C [9]?
**A.** The viability, T/C was 8.3%.

**Q.** And the viability, T/C [10]?
**A.** Its viability, T/C is 0.88%.

**Q.** And the viability, T/C (second compound 0.0316 µM, first compound 3.16 µM)?
**A.** The viability, T/C was 0.09%.

**Q.** What about the viability, T/C (second compound 0.0316 µM, first compound 10 µM) of the same compound?
**A.** Its viability, T/C is 0.14%.

**Q.** And the viability, T/C [11]?
**A.** Its viability, T/C is 16.9%.

**Q.** And the viability, T/C [12]?
**A.** Its viability, T/C is 16.5%.

**Q.** And the viability, T/C [13]?
**A.** Its viability, T/C is 8.06%.

**Q.** What about the viability, T/C [14] of the same compound?
**A.** Its viability, T/C is 0.56%.

**Q.** What about the viability, T/C (second compound 0.1 µM, first compound 3.16 µM) of the same compound?
**A.** The viability, T/C was 0.09%.

**Q.** And the viability, T/C (second compound 0.1 µM, first compound 10 µM)?
**A.** Its viability, T/C is 0.68%.

**Q.** What about the viability, T/C [15] of the same compound?
**A.** Its viability, T/C is 17.8%.

**Q.** And the viability, T/C [16]?
**A.** The viability, T/C was 16.2%.

**Q.** And the viability, T/C [17]?
**A.** The viability, T/C was 4.21%.

**Q.** And the viability, T/C [18]?
**A.** The viability, T/C was 0.29%.

**Q.** What about the viability, T/C (second compound 0.316 µM, first compound 3.16 µM) of the same compound?
**A.** Its viability, T/C is 0.07%.

**Q.** And the viability, T/C (second compound 0.316 µM, first compound 10 µM)?
**A.** Its viability, T/C is 0.12%.

**Q.** And the viability, T/C [19]?
**A.** Its viability, T/C is 0.37%.

**Q.** And the viability, T/C [20]?
**A.** The viability, T/C was 0.2%.

**Q.** And the viability, T/C [21]?
**A.** Its viability, T/C is 0.1%.

**Q.** What about the viability, T/C [22] of the same compound?
**A.** Its viability, T/C is 0.09%.

**Q.** What about the viability, T/C (second compound 1 µM, first compound 3.16 µM) of the same compound?
**A.** Its viability, T/C is 0.35%.

**Q.** What about the viability, T/C (second compound 1 µM, first compound 10 µM) of the same compound?
**A.** The viability, T/C was 0.44%.

**Q.** And the viability, T/C [23]?
**A.** The viability, T/C was 0.12%.

**Q.** And the viability, T/C [24]?
**A.** Its viability, T/C is 0.28%.

**Q.** What about the viability, T/C [25] of the same compound?
**A.** The viability, T/C was 0.17%.

**Q.** And the viability, T/C [26]?
**A.** Its viability, T/C is 0.06%.

**Q.** What about the viability, T/C (second compound 3.16 µM, first compound 3.16 µM) of the same compound?
**A.** The viability, T/C was 0.22%.

**Q.** And the viability, T/C (second compound 3.16 µM, first compound 10 µM)?
**A.** The viability, T/C was 0.3%.

**Q.** What about the viability, T/C [27] of the same compound?
**A.** The viability, T/C was 0.09%.

**Q.** What about the viability, T/C [28] of the same compound?
**A.** The viability, T/C was 0.18%.

**Q.** What about the viability, T/C [29] of the same compound?
**A.** The viability, T/C was 0.26%.

**Q.** And the viability, T/C [30]?
**A.** The viability, T/C was 0.1%.

**Q.** And the viability, T/C (second compound 10 µM, first compound 3.16 µM)?
**A.** The viability, T/C was 0.15%.

**Q.** What about the viability, T/C (second compound 10 µM, first compound 10 µM) of the same compound?
**A.** Its viability, T/C is 0.48%.
